For 14 molecules, inhibition in vivo and IC50 results are on record in patent US4616014A, “Triazine derivatives, and pharmaceutical compositions comprising the same” (Fujisawa Pharmaceutical Co., Ltd., priority 1981, dated 1986).

Counter-ions that a name gives are not always drawn. Like-named read-outs stand apart in the source and are kept apart here.

In one experiment the test system is mean blood pressure. Put plainly: Antihypertensive test in DOCA/saline hypertensive rats (Test Method A). Type of experiment: in vivo, male Wister rats. Conditions: Rattus norvegicus, DOCA hypertensive rats, read-out: Effect Max (mean ratio of maximum decrease of blood pressure); for inhibition in vivo at 1 mg/kg: d: orally; for inhibition in vivo at 0.1 mg/kg: c: orally. On the procedure: Five-week old male Wister rats were uninephrectomized under anesthesia. Deoxycorticosterone acetate (DOCA) (30 mg/kg), suspended in peanut oil, was injected subcutaneously twice a week and 1% saline was substituted for the drinking water. Animals with mean blood pressure 150-200 mmHg were used for experiment between 5 and 7 weeks after surgery. The test compounds were administered intraperitonealy or orally. Blood pressure was measured at the femoral artery by means of a pressure transducer and recorded as electrically integrated values of mean arterial pressure.

The test system of experiment [1] is platelet aggregation induced by adenosine diphosphate (ADP). Kind of experiment: Inhibition of ADP-induced platelet aggregation in platelet rich plasma (Test Method B). The following applies: ADP (2.5 μM), 37° C., 2 min, read-out: ID50, ADP. Type of experiment: cell-based, rabbit. The protocol:
(§1) Platelet rich plasma (PRP) which contains 6.5-7.5×10^8 platelet/ml was prepared from rabbit blood. To the 200 μl of PRP, 5 μl of calcium chloride (1 mM) and 50 μl of pH 7.4 Tris-acetate solution (5 mM) containing 120 mM NaCl and test compound were added successively, and then stirred for 2 min. at 37° C. To the solution 5 μl of adenosine diphosphate (ADP) (2.5 μM) or collagen (2.5 μg/ml) was added as an aggregation inducer. Aggregation was measured by using an aggregometer (NKK HEMA TRACER 1).

The subject of experiment [2] is platelet aggregation induced by collagen. Put plainly: Inhibition of collagen-induced platelet aggregation in platelet rich plasma (Test Method B). Format: cell-based, rabbit. The following applies: collagen (2.5 μg/ml), 37° C., 2 min, read-out: ID50, Collagen. The protocol:
as §1

[3] abbreviates: rabbit PRP, pH 7.4, listed as Ex. 76, 2 min.
[4] abbreviates: rabbit PRP, pH 7.4, listed as Ex. 75, 2 min.
[5] abbreviates: Oryctolagus cuniculus, Platelet, pH 7.4, rabbit PRP.

As to `CC1NC(=O)NN=C1c1ccc2c(c1)CCC(=O)N2C` (single isomer, unassigned; (+)) [Example 76, (+)-5-Methyl-6-(1-methyl-2-oxo-1,2,3,4-tetrahydroquinolin-6-yl)-4,5-dihydro-1,2,4-triazin-3(2H)-one], the inhibition in vivo at 1 mg/kg with mean blood pressure (po) turned out to be 56%. Moreover, the IC50 was found to be 1200 nM in experiment [1] (setting [3]) and 360 nM in experiment [2] (setting [3]).
Consider `CC1NC(=O)NN=C1c1ccc2c(c1)CCC(=O)N2C` (single isomer, unassigned; (-)) [Example 75, (-)-5-methyl-6-(1-methyl-2-oxo-1,2,3,4-tetrahydroquinolin-6-yl)-4,5-dihydro-1,2,4-triazin-3(2H)-one], for which the inhibition in vivo at 0.1 mg/kg in the experiment with mean blood pressure (po) is 55%. For the same molecule, the IC50 in experiment [1] (setting [4]) was found to be 98 nM; in experiment [2] (setting [4]) it was 34 nM.
For the molecule `CC1N=C(N2CCN(C(=O)c3ccco3)CC2)NN=C1c1ccccc1` (stereo not drawn) [4-(2), 3-[4-(2-Furoyl)-1-piperazinyl]-5-methyl-6-phenyl-2,5-dihydro-1,2,4-triazine], the inhibition in vivo at 10 mg/kg in the experiment with mean blood pressure (ip, a: intraperitonealy) came out at 48.9%.
Still for that read-out and setting: under `CC1N=C(NCCO)NN=C1c1ccccc1` (stereo not drawn) [6-(2), 3-(2-Hydroxyethylamino)-5-methyl-6-phenyl-2,5-dihydro-1,2,4-triazine] stands 43.1%; under `CC1N=C(N2CCOCC2)NN=C1c1ccccc1` (stereo not drawn) [8-(2), 5-methyl-3-morpholino-6-phenyl-2,5-dihydro-1,2,4-triazine hydrochloride], 48.9%.
On to `CC1N=C(N2CCCCC2)NN=C1c1ccccc1` (stereo not drawn) [10-(2), 5-Methyl-6-phenyl-3-piperidino-2,5-dihydro-1,2,4-triazine], for which the inhibition in vivo at 10 mg/kg in the experiment with mean blood pressure (ip, a: intraperitonealy) worked out at 46.5%; with mean blood pressure (po, b: orally), 50%.
Consider `CC1NC(=O)NN=C1c1ccccc1` (stereo not drawn) [36-(3), 5-methyl-6-phenyl-4,5-dihydro-1,2,4-triazin-3(2H)-one], for which the inhibition in vivo at 10 mg/kg in the experiment with mean blood pressure (ip, a: intraperitonealy) worked out at 45.2%.
With `CC1NC(=O)NN=C1c1ccc(Cl)cc1` (stereo not drawn) [39-(2), 6-(4-Chlorophenyl)-5-methyl-4,5-dihydro-1,2,4-triazin-3(2H)-one], the inhibition in vivo at 10 mg/kg in the experiment with mean blood pressure (ip, a: intraperitonealy) is 57.1%; with mean blood pressure (po, b: orally), 38.6%.
For `CC1NC(=O)NN=C1c1ccc2c(c1)CCC(=O)N2` (stereo not drawn) [67-(3), 5-Methyl-6-(2-oxo-1,2,3,4-tetrahydroquinolin-6-yl)-4,5-dihydro-1,2,4-triazin-3(2H)-one], the inhibition in vivo at 0.1 mg/kg in the experiment with mean blood pressure (po) came out at 43%. Moreover, the IC50 was determined as 54 nM in experiment [1] (setting [5]) and 18 nM in experiment [2] (setting [5]).
Regarding `CCCCN1C(=O)CCc2cc(C3=NNC(=O)NC3C)ccc21` (stereo not drawn) [68-(3), 6-(1-Butyl-2-oxo-1,2,3,4-tetrahydroquinolin-6-yl)-5-methyl-4,5-dihydro-1,2,4-triazin-3(2H)-one], the inhibition in vivo at 1 mg/kg in the experiment with mean blood pressure (po) worked out at 62%. The IC50 came out at 140 nM in experiment [1] (setting [5]) and 42 nM in experiment [2] (setting [5]).
In the case of `CC1N=C(NN)NN=C1c1ccc(Cl)cc1` (stereo not drawn) [Example 25-(4), 6-(4-chlorophenyl)-3-hydrazino-5-methyl-2,5-dihydro-1,2,4-triazine hydrochloride], the inhibition in vivo at 10 mg/kg was 51.7% with mean blood pressure (ip, a: intraperitonealy) and 37.4% in the experiment with mean blood pressure (po, b: orally).
For the molecule `CC1NC(=O)NN=C1c1ccc(Br)cc1` (stereo not drawn) [Example 32-(3), 37-(2), 6-(4-bromophenyl)-5-methyl-4,5-dihydro-1,2,4-triazin-3(2H)-one], the inhibition in vivo at 10 mg/kg in the experiment with mean blood pressure (ip, a: intraperitonealy) stood at 61.8%; with mean blood pressure (po, b: orally), 58.3%.
In the case of `CC1NC(=O)NN=C1c1ccc2c(c1)CCC(=O)N2C` (stereo not drawn) [Example 49-(3), 77-(2), 5-methyl-6-(1-methyl-2-oxo-1,2,3,4-tetrahydroquinolin-6-yl)-4,5-dihydro-1,2,4-triazin-3(2H)-one], in the experiment with mean blood pressure (po), the inhibition in vivo at 0.1 mg/kg was 43% and the inhibition in vivo at 1 mg/kg was found to be 70%. Also, in experiment [1] (setting [5]), the IC50 worked out at 160 nM. Also, the IC50 in experiment [2] (setting [5]) amounted to 110 nM.
As for `CC1NC(=O)N(C)N=C1c1ccc2c(c1)CCC(=O)N2C` (stereo not drawn) [Example 71, 2,5-Dimethyl-6-(1-methyl-2-oxo-1,2,3,4-tetrahydroquinolin-6-yl)-4,5-dihydro-1,2,4-triazin-3(2H)-one], the IC50 in experiment [1] (setting [5]) came to 9800 nM; in experiment [2] (setting [5]), 17000 nM.
